Reference: patent US20220389077A1, “ALLOGENEIC CELL COMPOSITIONS AND METHODS OF USE” (Poseida Therapeutics, Inc., priority 2018, published 2022)
Read-outs that look alike come from different tables or passages of the source.

T1: human CD58 (human, UniProt P19256 29-250)
T1 construct: whole, on cells
T1 sequence (looked up): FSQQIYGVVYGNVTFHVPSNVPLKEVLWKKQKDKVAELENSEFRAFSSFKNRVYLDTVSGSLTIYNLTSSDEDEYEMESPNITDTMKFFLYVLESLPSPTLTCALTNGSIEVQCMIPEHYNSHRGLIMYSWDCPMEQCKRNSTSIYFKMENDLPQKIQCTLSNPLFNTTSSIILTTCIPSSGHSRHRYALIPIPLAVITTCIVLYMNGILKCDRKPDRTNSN

B1: CSR CD2z (chimeric stimulatory receptor: CD2 extracellular, transmembrane and cytoplasmic domains fused to the CD3z intracellular domain) (receptor)
chain: KEITNALETWGALGQDINLDIPSFQMSDDIDDIKWEKTSDKKKIAQFRKEKETFKEKDTYKLFKNGTLKIKHLKTDDQDIYKVSIYDTKGKNVLEKIFDLKIQERVSKPKISWTCINTTLTCEVMNGTDPELNLYQDGKHLKLSQRVITHKWTTSLSAKFKCTAGNKVSKESSVEPVSCPEKGLDIYLIIGICGGGSLLMVFVALLVFYITKRKKQRSRRNDEELETRAHRVATEERGRKPHQIPASTPQNPATSQHPPPPPGHRSQAPSHRPPPPGHRVQHQPQKRPPAPSGTQVHQQKGPPLPRPRVQPKPPHGAAENSLSPSSNRVKFSRSADAPAYKQGQNQLYNELNLGRREEYDVLDKRRGRDPEMGGKPRRKNPQEGLYNELQKDKMAEAYSEIGMKGERRRGKGHDGLYQGLSTATKDTYDALHMQALPPR
notes: Expressed from mRNA on the surface of primary human T cells (degranulation assays) or K562 cells (staining); also called CSR WT CD2z; WT CD2z CSR

Experiments:
cells [1] = experiment: AP1903 amount needed in vitro for effective signaling of cells; format: cell-based; details: 1600 Da MW
Method: The fixed dose of AP1903 for injection used, for example, may be 0.4 mg/kg intravenously infused over 2 hours. The amount of AP1903 needed in vitro for effective signaling of cells is 10-100 nM (1600 Da MW). This equates to 16-160 μg/L or ^˜0.016-1.6 μg/kg (1.6-160 μg/kg). Doses up to 1 mg/kg were well-tolerated in the Phase I study of AP1903 described above. Therefore, 0.4 mg/kg may be a safe and effective dose of AP1903 for this Phase I study in combination with the therapeutic cells.

cells [2] = details: cited from earlier work
[3] = cited from earlier work
human CD58 = target: T1, human CD58; experiment: inferred from T-cell degranulation (CD107a) against K562/Rat2 cells overexpressing human CD58
Method: FIG. 23D is a series of flow cytometry plots showing the expression of CD48, CD58 or CD59 on K562 and Rat2 cells. To confirm possible ligands for the CSR WT CD2z molecule, a panel of known and suspected ligands including human CD48, CD58, and CD59 were tested. Degranulation of engineered T cells was evaluated against the cell lines K562 and Rat2 that were made to overexpress the target ligands and confirmed for expression by FACS staining. Red histograms are unstained cells and blue histograms are cells that were electroporated/lipofected with mRNA and then stained for expression of the respective marker by FACS.
FIG. 23E is a bar graph showing that CSR CD2z recognizes human CD58, but not CD48 or CD59. To confirm possible ligands for the CSR WT CD2z molecule, a panel of known and suspected ligands including human CD48, CD58, and CD59 were tested. Degranulation of engineered T cells was evaluated against the cell lines K562 and Rat2 that were made to overexpress the target ligands and confirmed for expression by FACS staining. Cells were electroporated/lipofected with mRNA and then stained for expression of the respective marker by FACS. […] T cell degranulation is a surrogate of T cell killing that can be measured by FACS staining for intracellular CD107a expression following coculture with target cell lines expressing target antigen. […]

Molecule | amount needed for effective signaling, converted (cells [1]) [µg/L] | amount needed in vitro for effective signaling of cells (cells [2]) [nM] | plasma levels versus dose ([3]; 0.01, 0.05, 0.1, 0.5 and 1.0 mg/kg) | mean Cmax ([3]; 0.01-1.0 mg/kg dose range, IV over 2 hours) [ng/mL] | plasma level as % of maximal concentration ([3]; 0.5 hours post-dose) | plasma level as % of maximal concentration ([3]; 2 hours post-dose) [%] | plasma level as % of maximal concentration ([3]; 10 hours post-dose) [%] | well-tolerated doses ([3]; Phase I study) | binding result (human CD58)
CC[C@H](C(=O)N1CCCC[C@H]1C(=O)O[C@H](CCc1ccc(OC)c(OC)c1)c1cccc(OCC(=O)NCCNC(=O)COc2cccc([C@@H](CCc3ccc(OC)c(OC)c3)OC(=O)[C@@H]3CCCCN3C(=O)[C@@H](CC)c3cc(OC)c(OC)c(OC)c3)c2)c1)c1cc(OC)c(OC)c(OC)c1 (relative stereo) [AP1903, 2-Piperidinecarboxylic acid, 1-[(2S)-1-oxo-2-(3,4,5-trimethoxyphenyl)butyl]-, 1,2-ethanediylbis[imino(2-oxo-2,1-ethanediyl)oxy-3,1-phenylene[(1R)-3-(3,4-dimethoxyphenyl)propylidene]]ester, [2S-[1(R*),2R*[S*[S*[1(R*),2R*]]]]]-(9Cl)] | 16 to 160 | 10 to 100 | directly proportional to dose | 10 to 1275 | approximately 18% | ~7 | ~1 | up to 1 mg/kg | –
B1 | – | – | – | – | – | – | – | – | binds
